Results reported in ChEMBL document CHEMBL2069208, “Isolactarane and sterpurane sesquiterpenoids from the basidiomycete Phlebia uda” (J Nat Prod, 2012).
Active and inactive are the calls of the source. The calls are words filed in the database; no cut-off is given here.

Key:
Jurkat [1] = assay: Growth inhibition of human Jurkat cells; type: functional, cell-based
HepG2 = assay: Growth inhibition of human HepG2 cells up to 50 ug/ml; type: functional, cell-based
Botrytis cinerea = assay: Inhibition of spore germination of Botrytis cinerea assessed as compound concentration causing 75 to 100% germination inhibition; type: functional
Fusarium graminearum = assay: Inhibition of spore germination of Fusarium graminearum assessed as compound concentration causing 75 to 100% germination inhibition; type: functional
Phytophthora infestans = assay: Inhibition of spore germination of Phytophthora infestans assessed as compound concentration causing 75 to 100% germination inhibition; type: functional
Pyricularia grisea = assay: Inhibition of spore germination of Magnaporthe grisea assessed as compound concentration causing 75 to 100% germination inhibition; type: functional
Jurkat [2] = assay: Growth inhibition of human Jurkat cells up to 50 ug/mL; type: functional, cell-based

Row | SMILES | IC50 (Jurkat [1]) [µM] | growth inhibition (GI) (HepG2) | INH (Botrytis cinerea) [µg/mL] | INH (Fusarium graminearum) [µg/mL] | INH (Phytophthora infestans) [µg/mL] | INH (Pyricularia grisea) [µg/mL] | growth inhibition (GI) (Jurkat [2])
1 | CC1=C2C[C@@](C)(C(=O)O)C[C@H]2C[C@]2(C)CC[C@]12O | 160 | inactive |  |  |  |  | 
2 | CC1(C)CC2=C(C=O)[C@@]34C[C@]3(C[C@@H]2C1)C(=O)OC4O (stereo not given in full) |  |  | 50 | 10 | 25 | 10 | 
3 | CC1=C2C[C@@](C)(CO)C[C@H]2C[C@]2(C)CC[C@]12O |  | inactive |  |  |  |  | inactive
4 | CCC(C)CCOC1OC(=O)[C@]23C[C@@H]4CC(C)(C)CC4=C(C=O)[C@]12C3 (mixture of isomers) [UDALACTARANE A] | 101 | inactive | >100 | 10 | 100 | 10 | 
5 | CC1=C2C[C@@](C)(COC3OC(=O)[C@]45C[C@@H]6CC(C)(C)CC6=C(C=O)[C@]34C5)C[C@H]2C[C@]2(C)CC[C@]12O (mixture of isomers) [UDALACTARANE B] | 42 | inactive | >100 | 5 | 10 |  | 
6 | Cc1cc(C2CCCCC2)n(O)c(=O)c1 [CICLOPIROX] |  |  | 50 |  |  |  | 
